Earlier results, collected in patent US5668151A, “Dihydropyridine NPY antagonists: piperidine derivatives” (Bristol-Myers Squibb Company, priority 1996, dated 1997).

How the values were obtained:
[1] = test system: rat femoral artery
[2] = test system: NPY-induced Ca++ entry in HEL cells

Structure (SMILES)	effect on the vasoconstrictive activity of the NPY1 agonist [Leu31, Pro34]NPY [1]	effect on the NPY2 agonist NPY13-36 ([1]; Y2 receptor functional selectivity)	pA2 [2]
N=C(N)N(CCCCCCNCc1ccc2ccccc2c1)CCCCCCN(CCCCCCNCc1ccc2ccccc2c1)C(=N)N [Example 6b]	no effect	antagonized	
N=C(NCCCc1cnc[nH]1)NCCC(c1cc(F)cc(F)c1)c1ccccn1 (stereo not drawn) [He 90481]			4.43
